Laboratory results: the NIST ThermoML archive (doi:10.1021/je060271a)

Conditions: 343.15 K, Liquid, Vibrating tube method

CCCCCC(=O)OCC(COC(=O)CCCCC)(COC(=O)CCCCC)COC(=O)CCCCC [pentaerythritol tetrahexanoate]
Conditions	mass density [kg/m3]
13093 kPa	966.8
13131 kPa	966.9
13169 kPa	966.9
13207 kPa	966.9
13245 kPa	966.9
13290 kPa	967
13328 kPa	967.2
13373 kPa	967
13409 kPa	967.1
13559 kPa	967.3
13566 kPa	967.3
13908 kPa	967.5
13933 kPa	967.3
13985 kPa	967.4
14253 kPa	967.7
14284 kPa	967.7
14335 kPa	967.9
14361 kPa	967.8
14387 kPa	967.8
14418 kPa	967.8
14469 kPa	967.9
14756 kPa	968.1
14783 kPa	968.1
14816 kPa	968.1
14843 kPa	968.2
15289 kPa	968.4
15317 kPa	968.4
15350 kPa	968.4
15379 kPa	968.4
15408 kPa	968.4
15436 kPa	968.6
15470 kPa	968.5
15498 kPa	968.6
15525 kPa	968.6
15558 kPa	968.6
15584 kPa	968.6
15615 kPa	968.6
16026 kPa	968.9
16081 kPa	968.9
16112 kPa	968.9
16138 kPa	969
16163 kPa	969
16189 kPa	969.1
16220 kPa	969
16246 kPa	969.1
16272 kPa	969
16303 kPa	969
16328 kPa	969.2
16525 kPa	969.2
16552 kPa	969.4
16584 kPa	969.3
16611 kPa	969.4
16638 kPa	969.2
16666 kPa	969.3
16699 kPa	969.4
16726 kPa	969.4
16754 kPa	969.4
16782 kPa	969.5
16815 kPa	969.5
16844 kPa	969.5
17457 kPa	970
17484 kPa	970
17516 kPa	970
17543 kPa	970
17571 kPa	970
17599 kPa	969.9
17632 kPa	970
17686 kPa	970
17714 kPa	970.1
17747 kPa	970.3
17775 kPa	970.2
17808 kPa	970.2
17836 kPa	970
17864 kPa	970.2
17898 kPa	970.1
17926 kPa	970.3
17954 kPa	970.3
17983 kPa	970.2
18017 kPa	970.3
18046 kPa	970.3
18080 kPa	970.3
18109 kPa	970.3
18137 kPa	970.4
18165 kPa	970.3
18200 kPa	970.4
18228 kPa	970.5
18261 kPa	970.5
18289 kPa	970.4
18316 kPa	970.6
18346 kPa	970.5
18370 kPa	970.6
18394 kPa	970.5
18418 kPa	970.6
18446 kPa	970.5
18471 kPa	970.6
18495 kPa	970.7
18524 kPa	970.7
18656 kPa	970.8
18681 kPa	970.8
18706 kPa	970.8
18732 kPa	970.7
18761 kPa	970.8
18787 kPa	970.9
18812 kPa	970.8
18842 kPa	970.9
18867 kPa	970.9
18923 kPa	971
18949 kPa	970.9
18975 kPa	971.1
19008 kPa	971
19034 kPa	971
19060 kPa	971.1
19085 kPa	971
19632 kPa	971.4
19654 kPa	971.4
19677 kPa	971.5
19700 kPa	971.5
19726 kPa	971.4
19747 kPa	971.4
19768 kPa	971.5
19790 kPa	971.5
19809 kPa	971.6
19830 kPa	971.5
19850 kPa	971.6
20110 kPa	971.8
20121 kPa	971.8
20124 kPa	971.8
20125 kPa	971.7
20126 kPa	971.8
20127 kPa	971.9
20128 kPa	971.8
21458 kPa	972.6
21485 kPa	972.7
21513 kPa	972.7
21545 kPa	972.7
21573 kPa	972.7
21600 kPa	972.8
21630 kPa	972.7
21654 kPa	972.8
21678 kPa	972.6
21708 kPa	972.7
21835 kPa	972.9
21865 kPa	972.9
21890 kPa	973
21915 kPa	973
